# Test system: 282377-053-R-J1-PDC complex spheroid viability
# Assay: Anticancer human tumor 282377-053-R-J1-PDC patient-derived colon adenocarcinoma cell line growth inhibition [RAS]
# Conditions: for viability, T/C: stronger effect = lower value
# In short: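 Tumour cells grown as complex spheroids with HUVEC endothelial cells and mesenchymal stem cells, treated with RAS pathway inhibitor combinations. Each agent spans half-log steps from near clinical Cmax, or 10 microM where Cmax is unknown.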
# [1] = curve of first compound, second compound 0.000949 µM
# [2] = curve of first compound, second compound 0.003 µM
# [3] = curve of first compound, second compound 0.00949 µM
# [4] = curve of first compound, second compound 0.03 µM
# [5] = curve of first compound, second compound 0.0949 µM
# [6] = curve of first compound, second compound 0.3 µM
# [7] = second compound 0.000949 µM, first compound 0.00316 µM
# [8] = second compound 0.000949 µM, first compound 0.01 µM
# [9] = second compound 0.000949 µM, first compound 0.0316 µM
# [10] = second compound 0.000949 µM, first compound 0.1 µM
# [11] = second compound 0.003 µM, first compound 0.00316 µM
# [12] = second compound 0.003 µM, first compound 0.01 µM
# [13] = second compound 0.003 µM, first compound 0.0316 µM
# [14] = second compound 0.003 µM, first compound 0.1 µM
# [15] = second compound 0.00949 µM, first compound 0.00316 µM
# [16] = second compound 0.00949 µM, first compound 0.01 µM
# [17] = second compound 0.00949 µM, first compound 0.0316 µM
# [18] = second compound 0.00949 µM, first compound 0.1 µM
# [19] = second compound 0.03 µM, first compound 0.00316 µM
# [20] = second compound 0.03 µM, first compound 0.01 µM
# [21] = second compound 0.03 µM, first compound 0.0316 µM
# [22] = second compound 0.03 µM, first compound 0.1 µM
# [23] = second compound 0.0949 µM, first compound 0.00316 µM
# [24] = second compound 0.0949 µM, first compound 0.01 µM
# [25] = second compound 0.0949 µM, first compound 0.0316 µM
# [26] = second compound 0.0949 µM, first compound 0.1 µM
# [27] = second compound 0.3 µM, first compound 0.00316 µM
# [28] = second compound 0.3 µM, first compound 0.01 µM
# [29] = second compound 0.3 µM, first compound 0.0316 µM
# [30] = second compound 0.3 µM, first compound 0.1 µM
# 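Further: spheroids exposed to agents for seven days before readout.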
# 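Wherever viability, T/C is given: luminescence viability as percent of DMSO vehicle control wells.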
smiles,measurement,setting,value
NC1c2ccccc2OC12CCN(c1cnc3c(N4CCCc5ncccc54)n[nH]c3n1)CC2 (configuration not stated) + C=CC(=O)N1CCN(c2nc(OCC3CCCN3C)nc3c(F)c(-c4nc(N)cc(C)c4C(F)(F)F)c(Cl)cc23)C(C)C1,IC50,"curve of first compound, second compound 0.00316 µM",> 10 µM
same,IC50,"curve of first compound, second compound 0.01 µM",> 10 µM
same,IC50,"curve of first compound, second compound 0.0316 µM",> 10 µM
same,IC50,"curve of first compound, second compound 0.1 µM",> 10 µM
same,IC50,"curve of first compound, second compound 0.316 µM",> 10 µM
same,IC50,"curve of first compound, second compound 1 µM",> 10 µM
same,"viability, T/C","second compound 0.00316 µM, first compound 0.0316 µM",114%
same,"viability, T/C","second compound 0.00316 µM, first compound 0.1 µM",104%
same,"viability, T/C","second compound 0.00316 µM, first compound 0.316 µM",102%
same,"viability, T/C","second compound 0.00316 µM, first compound 1 µM",95%
same,"viability, T/C","second compound 0.00316 µM, first compound 3.16 µM",105%
same,"viability, T/C","second compound 0.00316 µM, first compound 10 µM",79%
same,"viability, T/C","second compound 0.01 µM, first compound 0.0316 µM",89.9%
same,"viability, T/C","second compound 0.01 µM, first compound 0.1 µM",112%
same,"viability, T/C","second compound 0.01 µM, first compound 0.316 µM",99.1%
same,"viability, T/C","second compound 0.01 µM, first compound 1 µM",118%
same,"viability, T/C","second compound 0.01 µM, first compound 3.16 µM",93.8%
same,"viability, T/C","second compound 0.01 µM, first compound 10 µM",86.5%
same,"viability, T/C","second compound 0.0316 µM, first compound 0.0316 µM",106%
same,"viability, T/C","second compound 0.0316 µM, first compound 0.1 µM",105%
same,"viability, T/C","second compound 0.0316 µM, first compound 0.316 µM",92.9%
same,"viability, T/C","second compound 0.0316 µM, first compound 1 µM",92.2%
same,"viability, T/C","second compound 0.0316 µM, first compound 3.16 µM",90.3%
same,"viability, T/C","second compound 0.0316 µM, first compound 10 µM",83.5%
same,"viability, T/C","second compound 0.1 µM, first compound 0.0316 µM",82.1%
same,"viability, T/C","second compound 0.1 µM, first compound 0.1 µM",87.8%
same,"viability, T/C","second compound 0.1 µM, first compound 0.316 µM",84.1%
same,"viability, T/C","second compound 0.1 µM, first compound 1 µM",108%
same,"viability, T/C","second compound 0.1 µM, first compound 3.16 µM",122%
same,"viability, T/C","second compound 0.1 µM, first compound 10 µM",84.2%
same,"viability, T/C","second compound 0.316 µM, first compound 0.0316 µM",88%
same,"viability, T/C","second compound 0.316 µM, first compound 0.1 µM",98.6%
same,"viability, T/C","second compound 0.316 µM, first compound 0.316 µM",95.8%
same,"viability, T/C","second compound 0.316 µM, first compound 1 µM",96.5%
same,"viability, T/C","second compound 0.316 µM, first compound 3.16 µM",113%
same,"viability, T/C","second compound 0.316 µM, first compound 10 µM",91.1%
same,"viability, T/C","second compound 1 µM, first compound 0.0316 µM",97.5%
same,"viability, T/C","second compound 1 µM, first compound 0.1 µM",106%
same,"viability, T/C","second compound 1 µM, first compound 0.316 µM",103%
same,"viability, T/C","second compound 1 µM, first compound 1 µM",104%
same,"viability, T/C","second compound 1 µM, first compound 3.16 µM",104%
same,"viability, T/C","second compound 1 µM, first compound 10 µM",86.6%
C=CC(=O)Nc1cc(Nc2nccc(-c3cn(C)c4ccccc34)n2)c(OC)cc1N(C)CCN(C)C + CCn1c(-c2cccnc2C(C)OC)c2c3cc(ccc31)N1CCOC(CC(NC(=O)C(C(C)C)N(C)C(=O)C3(F)CCN(C(=O)C#CC(C)(C)N(C)C)CC3)C(=O)N3CCCC(N3)C(=O)OCC(C)(C)C2)C1,IC50,[1],> 1 µM
same,IC50,[2],> 1 µM
same,IC50,[3],> 1 µM
same,IC50,[4],> 1 µM
same,IC50,[5],> 1 µM
same,IC50,[6],> 1 µM
same,"viability, T/C",[7],99%
same,"viability, T/C",[8],126%
same,"viability, T/C",[9],127%
same,"viability, T/C",[10],92%
same,"viability, T/C","second compound 0.000949 µM, first compound 0.316 µM",86%
same,"viability, T/C","second compound 0.000949 µM, first compound 1 µM",123%
same,"viability, T/C",[11],109%
same,"viability, T/C",[12],177%
same,"viability, T/C",[13],108%
same,"viability, T/C",[14],81%
same,"viability, T/C","second compound 0.003 µM, first compound 0.316 µM",92.6%
same,"viability, T/C","second compound 0.003 µM, first compound 1 µM",88%
same,"viability, T/C",[15],88%
same,"viability, T/C",[16],188%
same,"viability, T/C",[17],98%
same,"viability, T/C",[18],84.8%
same,"viability, T/C","second compound 0.00949 µM, first compound 0.316 µM",91.5%
same,"viability, T/C","second compound 0.00949 µM, first compound 1 µM",119%
same,"viability, T/C",[19],102%
same,"viability, T/C",[20],140%
same,"viability, T/C",[21],113%
same,"viability, T/C",[22],114%
same,"viability, T/C","second compound 0.03 µM, first compound 0.316 µM",86.9%
same,"viability, T/C","second compound 0.03 µM, first compound 1 µM",97.4%
same,"viability, T/C",[23],95.8%
same,"viability, T/C",[24],153%
same,"viability, T/C",[25],93.9%
same,"viability, T/C",[26],98.5%
same,"viability, T/C","second compound 0.0949 µM, first compound 0.316 µM",87.1%
same,"viability, T/C","second compound 0.0949 µM, first compound 1 µM",124%
same,"viability, T/C",[27],85.7%
same,"viability, T/C",[28],134%
same,"viability, T/C",[29],99.5%
same,"viability, T/C",[30],102%
same,"viability, T/C","second compound 0.3 µM, first compound 0.316 µM",97.2%
same,"viability, T/C","second compound 0.3 µM, first compound 1 µM",121%
CC(C)n1nc(-c2ccc3oc(N)nc3c2)c2c(N)ncnc21 + CCn1c(-c2cccnc2C(C)OC)c2c3cc(ccc31)N1CCOC(CC(NC(=O)C(C(C)C)N(C)C(=O)C3(F)CCN(C(=O)C#CC(C)(C)N(C)C)CC3)C(=O)N3CCCC(N3)C(=O)OCC(C)(C)C2)C1,IC50,[1],> 0.1 µM
same,IC50,[2],> 0.1 µM
same,IC50,[3],> 0.1 µM
same,IC50,[4],> 0.1 µM
same,IC50,[5],> 0.1 µM
same,IC50,[6],> 0.1 µM
same,"viability, T/C","second compound 0.000949 µM, first compound 0.000316 µM",91.5%
same,"viability, T/C","second compound 0.000949 µM, first compound 0.001 µM",112%
same,"viability, T/C",[7],87.1%
same,"viability, T/C",[8],76.9%
same,"viability, T/C",[9],65.7%
same,"viability, T/C",[10],59.7%
same,"viability, T/C","second compound 0.003 µM, first compound 0.000316 µM",84.5%
same,"viability, T/C","second compound 0.003 µM, first compound 0.001 µM",103%
same,"viability, T/C",[11],73.8%
same,"viability, T/C",[12],73.6%
same,"viability, T/C",[13],75.3%
same,"viability, T/C",[14],70.1%
same,"viability, T/C","second compound 0.00949 µM, first compound 0.000316 µM",119%
same,"viability, T/C","second compound 0.00949 µM, first compound 0.001 µM",108%
same,"viability, T/C",[15],98.5%
same,"viability, T/C",[16],80%
same,"viability, T/C",[17],67.8%
same,"viability, T/C",[18],59.1%
same,"viability, T/C","second compound 0.03 µM, first compound 0.000316 µM",110%
same,"viability, T/C","second compound 0.03 µM, first compound 0.001 µM",87.2%
same,"viability, T/C",[19],77.3%
same,"viability, T/C",[20],86%
same,"viability, T/C",[21],66.9%
same,"viability, T/C",[22],50.2%
same,"viability, T/C","second compound 0.0949 µM, first compound 0.000316 µM",100%
same,"viability, T/C","second compound 0.0949 µM, first compound 0.001 µM",117%
same,"viability, T/C",[23],86.9%
same,"viability, T/C",[24],75%
same,"viability, T/C",[25],68.1%
same,"viability, T/C",[26],48.5%
same,"viability, T/C","second compound 0.3 µM, first compound 0.000316 µM",107%
same,"viability, T/C","second compound 0.3 µM, first compound 0.001 µM",89.2%
same,"viability, T/C",[27],96.3%
same,"viability, T/C",[28],73.2%
same,"viability, T/C",[29],71.6%
same,"viability, T/C",[30],57.3%
CC(Nc1ccc2c(c1)OCCn1cc(N3C(=O)OCC3C(F)F)nc1-2)C(N)=O (configuration not stated),"viability, T/C",compound 0.0316 µM,94% [middle of 4 runs]
same,"viability, T/C",compound 0.316 µM,85.7% [middle of 4 runs]
same,"viability, T/C",compound 1 µM,87.3% [middle of 4 runs]
same,"viability, T/C",compound 3.16 µM,93.8% [middle of 4 runs]
same,"viability, T/C",compound 10 µM,84.6% [middle of 4 runs]
same,IC50,curve of compound,> 10 µM
